ChEMBL document CHEMBL1136230, “Antiallergic principles from Alpinia galanga: structural requirements of phenylpropanoids for inhibition of degranulation and release of TNF-alpha and IL-4 in RBL-2H3 cells” (Bioorg Med Chem Lett, 2003)

Legend:
[1] = tested on: RBL-2H3; experiment: Percentage inhibition against release of beta-hexosaminidase from RBL-2H3 cells at 100 uM from control; type: functional; settings: Rattus norvegicus
[2] = tested on: RBL-2H3; experiment: Inhibitory activity against release of beta-hexosaminidase from RBL-2H3 cells; type: functional, cell-based; settings: Rattus norvegicus
[3] = tested on: Mus musculus; experiment: In vivo inhibitory activity against leakage of dye on ear PCA reaction 30 min after 12.5 mg/kg oral administration in mice; type: functional; design: scale not given: the % may be the effect or the level left
[4] = tested on: Mus musculus; experiment: In vivo inhibitory activity against leakage of dye on ear PCA reaction 30 min after 25 mg/kg oral administration in mice; type: functional; design: scale not given: the % may be the effect or the level left
[5] = tested on: Mus musculus; experiment: In vivo inhibitory activity against leakage of dye on ear PCA reaction 30 min after 50 mg/kg oral administration in mice; type: functional; design: scale not given: the % may be the effect or the level left
[6] = tested on: Mus musculus; experiment: In vivo inhibitory activity against leakage of dye on ear PCA reaction 30 min after 6.25 mg/kg oral administration in mice; type: functional; design: scale not given: the % may be the effect or the level left
[7] = tested on: RBL-2H3; experiment: Inhibitory activity against IL-4 production in RBL-2H3 cells was determined; type: functional, cell-based; settings: Rattus norvegicus
[8] = tested on: RBL-2H3; experiment: Percentage inhibition against antigen-induced IL-4 production in RBL-2H3 cells at 0 uM concentration; type: functional, Rattus norvegicus
[9] = tested on: RBL-2H3; experiment: Percentage inhibition against antigen-induced IL-4 production in RBL-2H3 cells at 10 uM concentration; type: functional; settings: Rattus norvegicus
[10] = tested on: RBL-2H3; experiment: Percentage inhibition against antigen-induced IL-4 production in RBL-2H3 cells at 100 uM concentration; type: functional; settings: Rattus norvegicus
[11] = tested on: RBL-2H3; experiment: Percentage inhibition against antigen-induced IL-4 production in RBL-2H3 cells at 3 uM concentration; type: functional; settings: Rattus norvegicus
[12] = tested on: RBL-2H3; experiment: Percentage inhibition against antigen-induced IL-4 production in RBL-2H3 cells at 30 uM concentration; type: functional; settings: Rattus norvegicus
[13] = tested on: RBL-2H3; experiment: Percentage inhibition against antigen-induced TNF-alpha production in RBL-2H3 cells at 0 uM concentration; type: functional, Rattus norvegicus
[14] = tested on: RBL-2H3; experiment: Percentage inhibition against antigen-induced TNF-alpha production in RBL-2H3 cells at 10 uM concentration; type: functional; settings: Rattus norvegicus
[15] = tested on: RBL-2H3; experiment: Percentage inhibition against antigen-induced TNF-alpha production in RBL-2H3 cells at 100 uM concentration; type: functional; settings: Rattus norvegicus
[16] = tested on: RBL-2H3; experiment: Percentage inhibition against antigen-induced TNF-alpha production in RBL-2H3 cells at 3 uM concentration; type: functional; settings: Rattus norvegicus
[17] = tested on: RBL-2H3; experiment: Percentage inhibition against antigen-induced TNF-alpha production in RBL-2H3 cells at 30 uM concentration; type: functional; settings: Rattus norvegicus
[18] = tested on: RBL-2H3; experiment: Inhibitory activity against TNF-alpha production in RBL-2H3 cells was determined; type: functional, cell-based; settings: Rattus norvegicus
[19] = tested on: Mus musculus; experiment: In vivo inhibitory activity against leakage of dye on ear PCA reaction 30 min after 100 mg/kg oral administration in mice; type: functional; design: scale not given: the % may be the effect or the level left
[20] = tested on: Mus musculus; experiment: In vivo inhibitory activity against leakage of dye on ear PCA reaction 30 min after 200 mg/kg oral administration in mice; type: functional; design: scale not given: the % may be the effect or the level left
[21] = tested on: Mus musculus; experiment: In vivo inhibitory activity against leakage of dye on ear PCA reaction 30 min after 400 mg/kg oral administration in mice; type: functional; design: scale not given: the % may be the effect or the level left

COc1ccc(/C=C/C(=O)O)cc1OC [O,O'-DIMETHYLCAFFEIC ACID]
inhibition at 100 µM [1]: 9%

O=C/C=C/c1ccc(O)cc1 [p-HYDROXYCINNAMALDEHYDE]
IC50 [2]: > 100 µM | inhibition at 100 µM [1]: 22%

C=C[C@H](O)c1ccc(OC(C)=O)cc1
inhibition at 100 µM [1]: 4%

C=CCc1ccc(OC(C)=O)cc1
inhibition at 100 µM [1]: 11%

C=CCc1ccc(OC)c(OC)c1 [METHYLEUGENOL]
inhibition at 100 µM [1]: 1%

C=CCc1ccc(O[C@H]2O[C@@H](CO)[C@H](O)[C@H](O)[C@@H]2O)cc1
inhibition at 100 µM [1]: 0%

O=C(O)/C=C/c1ccc(O)cc1 [COUMARIC ACID]
inhibition at 100 µM [1]: 6%

C=CCc1ccc(O)cc1 [CHAVICOL]
inhibition at 100 µM [1]: 3%

CC(=O)OC/C=C/c1ccc(OC(C)=O)cc1
IC50 [2]: > 100 µM | inhibition at 100 µM [1]: 21%

C=CCc1ccc(OC(C)=O)c(OC)c1 [EUGENYL ACETATE]
inhibition at 100 µM [1]: 9%

O=C(O)/C=C/c1ccccc1O [O-COUMARIC ACID]
inhibition at 100 µM [1]: 11%

CC(=O)OC/C=C/c1ccc(O)cc1
inhibition at 100 µM [1]: 6%

C=CCc1ccc(O)c(OC)c1 [EUGENOL]
inhibition at 100 µM [1]: 4%

COc1cc(/C=C/C(=O)O)cc(OC)c1O [SINAPINATE]
inhibition at 100 µM [1]: 10%

C=C[C@H](OC(C)=O)c1ccc(OC(C)=O)cc1 [1'-ACETOXYCHAVICOL ACETATE]
Control [3]: 65.5% | Control [4]: 49.5% | Control [5]: 44.3% | Control [6]: 72.4% | IC50 [7]: 12 µM | IC50 [2]: 15 µM | Inhibition [8]: 0% | inhibition at 10 µM [9]: 45.9% | inhibition at 100 µM [10]: 99.9% | inhibition at 3 µM [11]: 39.4% | inhibition at 30 µM [12]: 98.1% | Inhibition [13]: 0% | inhibition at 10 µM [14]: 32.4% | inhibition at 100 µM [15]: 87.2% | inhibition at 3 µM [16]: 5.4% | inhibition at 30 µM [17]: 66.9% | IC50 [18]: 17 µM

C=C[C@H](OC(C)=O)c1ccccc1
inhibition at 100 µM [1]: 9%

O=C(O)/C=C/c1ccccc1 [CINNAMIC ACID]
inhibition at 100 µM [1]: 7%

O=C(O)/C=C/c1cccc(O)c1
inhibition at 100 µM [1]: 1%

C=C[C@H](OC(C)=O)c1ccc(OC(C)=O)c(OC)c1
Control [3]: 58.4% | Control [4]: 54.7% | Control [5]: 37.8% | Control [6]: 65.2% | IC50 [7]: 12 µM | IC50 [2]: 19 µM | Inhibition [8]: 0% | inhibition at 10 µM [9]: 45.9% | inhibition at 100 µM [10]: 99.9% | inhibition at 3 µM [11]: 39.4% | inhibition at 30 µM [12]: 98.1% | Inhibition [13]: 0% | inhibition at 10 µM [14]: 89% | inhibition at 3 µM [16]: 25% | inhibition at 30 µM [17]: 101% | IC50 [18]: 5.8 µM

C=CCc1ccc(O)c(O)c1 [HYDROXYCHAVICOL]
IC50 [2]: > 100 µM | inhibition at 100 µM [1]: 17%

OC/C=C/c1ccc(O)cc1
inhibition at 100 µM [1]: 2%

C=C[C@H](O)c1ccccc1
inhibition at 100 µM [1]: 3%

COc1ccc(/C=C/C(=O)Nc2ccccc2C(=O)O)cc1OC [TRANILAST]
Control [19]: 66% | Control [20]: 49.8% | Control [21]: 42.7%

CC[C@H](OC(C)=O)c1ccc(OC(C)=O)cc1
IC50 [2]: 60 µM

O=C(O)/C=C/c1ccc(O)c(O)c1 [CAFFEIC ACID]
inhibition at 100 µM [1]: 5%

COc1ccc(/C=C/C(=O)O)cc1 [4-METHOXYCINNAMIC ACID]
inhibition at 100 µM [1]: 11%

O=c1cc(-c2ccc(O)c(O)c2)oc2cc(O)cc(O)c12 [LUTEOLIN]
IC50 [7]: 3.7 µM | Inhibition [8]: 0% | inhibition at 10 µM [9]: 89.4% | inhibition at 3 µM [11]: 41.6% | inhibition at 30 µM [12]: 99.2% | Inhibition [13]: 0% | inhibition at 10 µM [14]: 89% | inhibition at 3 µM [16]: 25% | inhibition at 30 µM [17]: 101% | IC50 [18]: 5.8 µM
